Measured values reported in US8399503B2, “Spirocyclic azaindole derivatives” (Gruenenthal GmbH, priority 2006, dated 2013).
Structures can show the parent of a compound that is named as a salt.

Tests used:
[1] = target: human μ-opiate receptor (Homo sapiens, UniProt P35372); assay: μ binding: [3H]-naloxone displacement, membrane preparation of CHO-K1 cells expressing the human μ-opiate receptor; conditions: [3H]-naloxone 1 nmole/l; Cheng-Prusoff conversion; read-out: μ-Opioid receptor, Ki value
human μ-opiate receptor, sequence (P35372 whole entry): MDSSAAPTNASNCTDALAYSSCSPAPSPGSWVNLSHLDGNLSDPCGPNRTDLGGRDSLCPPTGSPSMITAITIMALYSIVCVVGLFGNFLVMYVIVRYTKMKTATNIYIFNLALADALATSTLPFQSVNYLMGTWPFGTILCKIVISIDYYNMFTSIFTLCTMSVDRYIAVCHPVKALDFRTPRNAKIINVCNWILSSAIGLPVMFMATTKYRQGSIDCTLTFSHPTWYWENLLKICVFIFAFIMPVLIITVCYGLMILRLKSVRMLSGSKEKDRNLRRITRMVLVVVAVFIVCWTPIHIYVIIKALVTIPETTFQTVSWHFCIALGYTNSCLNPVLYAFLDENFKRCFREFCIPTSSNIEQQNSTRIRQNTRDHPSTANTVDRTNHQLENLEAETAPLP

melting point [°C]	Structure (SMILES)	Ki [1] [nM]
246 to 253	CN(C)C1(c2ccccc2)CCC2(CC1)SCCc1c2[nH]c2ncccc12 (stereo not drawn) (as salt: citrate)	
163 to 168	CN(C)C1(c2ccccc2)CCC2(CC1)SCCc1c2[nH]c2ccncc12 (stereo not drawn) (as salt: citrate)	
	c1ccc(CC2(N3CCOCC3)CCC3(CC2)OCCc2c3[nH]c3ncccc23)cc1 (stereo not drawn) [Example 19, 4-benzyl-4-morpholino-spiro[cyclohexane-1,8′-(5,6,8,9-tetrahydropyrano[3,4-b]-7-azaindole)]]	2910
